Experimental data reported in patent US20240415819A1, “MACROCYCLIC COMPOUNDS AS PROTEASOME SUBUNIT BETA TYPE-5 INHIBITORS” (Lead Discovery Center GmbH, priority 2021, published 2024).

Tests used:
[1] = system: A549 (human lung carcinoma cell line); assay: Glo assay of A549 cells (Table 3; ProteasomeGlo plating scheme); format: cell-based; conditions: Homo sapiens; A549 cells; read-out: PGLo A549
Procedure, shortened: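 Compound treatment lasts 105 minutes at 37° C. under 5% CO2. Suc-LLVY-Glo substrate premixed with detection reagent (60 min at room temperature) is then added directly to the cells, and luminescence after 10-15 min in the dark gives the IC50 in nM.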

[2] = system: hPMBC; assay: Chymotrypsin-like ProteasomeGlo assay in hPBMC; format: cell-based; conditions: Homo sapiens; read-out: Pglo hPBMC
Source text: Chymotrypsin-like ProteasomeGlo assay in the B-cells isolated from PBMC's following compound addition (IC50). • 1. PBMC's will be isolated from human blood followed by B-cell isolation from the PBMC's using the Miltenyi Isolation Kit. • 2. This experiment will use the Chymotrypsin-like ProteasomeGlo read-out to generate IC50's following compound treatment. • 3. Dilute all compounds 1:100 for the assay. • 4. […] Repeat the DMSO transfer with lane 12. • 5. Lane 12 should not be seeded with any cells. Only medium! • 6. For all steps, make sure the samples and reagents remain cool! • 7. While dealing with the buffy coats, be careful to not let any exposed skin to be in direct contact with the blood.
For the initial steps and to make processing the buffy coats easier, separately process the buffy coats. • a. Cut the tube attached to the buffy coats carefully using a clean, sterile and fresh scalpel. • b. Transfer the blood into 2 individual 50 ml falcons. • c. Add an equal volume of DPBS to the blood in the falcons. • d. Add ˜20 ml of lymphocyte separating medium to two 50 ml falcons. • e. Carefully pour 15-20 ml of the blood+DPBS mix from step c. onto the lymphocyte separating medium from step d. • f. Centrifuge the falcons with the lymphocyte separating medium+blood mix at 800×g for 15 minutes using a swing-out rotor. • g. Following centrifugation, carefully remove the falcons from the centrifuge. • h. The following layers will be observed: • i. Aspirate the plasma layer off carefully without disturbing the different layers. • j. Remove the cell pellet using a pipette into two fresh 50 ml falcons. • k. Fill the falcons with the cells up to 50 ml with DPBS. • l. Centrifuge the falcons at 250×g for 10 minutes using a swing-out rotor (Brake-off). • m. Aspirate the complete DPBS off the cells without disturbing the cell pellet at the bottom of the falcon. • n. Re-suspend the cell pellet in 10 ml of 1×RBC lysis buffer. • o. Incubate the falcons at room temperature in the dark for 10 minutes. • p. After RBC lysis, centrifuge the tubes at 250×g for 10 minutes using a swing-out rotor (brake-off). • (*Note: If the cell pellet is still red or light red, repeat steps n. to p.!) • q. Re-suspend the cell pellet in DPBS up to 50 ml in the falcon. • r. Centrifuge the falcons at 250×g for 10 minutes using a swing-out rotor (Brake-off). • s. Aspirate the DPBS off the cells without disturbing the cell pellet at the bottom of the falcon. • t. Repeat the wash step as described in steps q. to s. 2× times more (total number of washes is 3×). • u. Aspirate the DPBS completely off the cell pellet after the last wash without disturbing the cell pellet. • v. Re-suspend the cell pellet in 20 ml of PBMC cell medium. • w.
• a. Remove the plates with cells from the incubator. • b. Take all the plates including the compound plate, intermediate plate and Staurosporine plate to the ECHO. • c. Click on “Open” in the ECHO software and select the protocol “QLI5_25ul_30 uM-Grenier”. • d. Follow the on-screen prompts and instructions once you click “Start” to insert the compound plate, intermediate plate and destination plates. • e. Change the final number of destination plates on the program. • f. Follow the on-screen prompts and instructions once you click “Start” to load the Staurosporine and destination plates. • g. Once all the compounds, DMSO and Staurosporine have been transferred, place the destination plates in a wet tissue box. • h. Place the destination plates back into the incubator and incubate at 37° C., 5% CO2 for 105 minutes. • i. Re-seal all the compound+Stauro diamond and intermediate plates and store in the dark. Chymotrypsin like ProteasomeGlo Assay • 1. Thaw the components of the ProteasomeGlo assay at room temperature including the ProteasomeGlo Buffer, the lyophilized Luciferin Detection Reagent and the Suc-LLVY-Glo Substrate. • 2. […]

| SMILES | IC50 [1] | IC50 [2] |
| --- | --- | --- |
| CC(=O)N[C@H]1CC(=O)N2CCCC(CCOc3ccc(C)c(c3)CNC(=O)C(CCc3cccnc3)NC1=O)C2 (stereo partly drawn) [Compound 549, N-((12S)-5^4-methyl-8,11,14-trioxo-9-(2-(pyridin-3-yl)ethyl)-4-oxa-7,10-diaza-1(3,1)-piperidina-5(1,3)-benzenacyclotetradecaphane-12-yl)acetamide] | 0.1 to 0.5 µM | < 0.1 µM |
| Cc1ccc2cc1CNC(=O)[C@H](CCc1ccccc1)NC(=O)[C@@H](NC(=O)Cc1ccccc1F)CC(=O)N1CCCC(CCO2)C1 (stereo partly drawn) [Compound 333, 2-(2-fluorophenyl)-N-((9S,12S)-5^4-methyl-8,11,14-trioxo-9-phenethyl-4-oxa-7,10-diaza-1(3,1)-piperidina-5(1,3)-benzenacyclotetradecaphane-12-yl)acetamide] | < 0.1 µM | < 0.1 µM |
| CC(=O)c1ccc(CC(=O)N[C@H]2CC(=O)N3CCCC(CCOc4ccc(C)c(c4)CNC(=O)[C@H](CCc4ccccc4)NC2=O)C3)cc1 (stereo partly drawn) [Compound 341, 2-(4-acetylphenyl)-N-((9S,12S)-54-methyl-8,11,14-trioxo-9-phenethyl-4-oxa-7,10-diaza-1(3,1)-piperidina-5(1,3)-benzenacyclotetradecaphane-12-yl)acetamide] | < 0.1 µM | < 0.1 µM |
| CC(=O)N[C@H]1CCCC(=O)N(C)CCCCOc2ccc(C)c(c2)CNC(=O)[C@H](CCc2ccccc2)NC1=O [Compound 295, N-(1^4,7-dimethyl-8,13,16-trioxo-15-phenethyl-2-oxa-7,14,17-triaza-1(1,3)-benzenacyclooctadecaphane-12-yl)acetamide] | 0.1 to 0.5 µM | 0.1 to 0.5 µM |
| CC(=O)N[C@H]1CC(=O)N2CCCC(CCOc3ccc(C)c(c3)CNC(=O)C(c3ccc4ncccc4c3)NC1=O)C2 (stereo partly drawn) [Compound 554, N-((12S)-5^4-methyl-8,11,14-trioxo-9-(quinolin-6-yl)-4-oxa-7,10-diaza-1(3,1)-piperidina-5(1,3)-benzenacyclotetradecaphane-12-yl)acetamide] | 0.1 to 0.5 µM | 0.1 to 0.5 µM |
| Cc1ccc2cc1CNC(=O)C(CCc1ccncc1)NC(=O)[C@@H](NC(=O)Cc1nnc(N)s1)CC(=O)N1CCCC(CCO2)C1 (stereo partly drawn) [Compound 342, 2-(5-amino-1,3,4-thiadiazol-2-yl)-N-((12S)-5^4-methyl-8,11,14-trioxo-9-(2-(pyridin-4-yl)ethyl)-4-oxa-7,10-diaza-1(3,1)-piperidina-5(1,3)-benzenacyclotetradecaphane-12-yl)acetamide] | < 0.1 µM | < 0.1 µM |
| CC(=O)N[C@H]1CC(=O)N2CCCC(CCOc3ccc(C)c(c3)CNC(=O)C(c3cc(C)sn3)NC1=O)C2 (stereo partly drawn) [Compound 556, N-((12S)-5^4-methyl-9-(5-methylisothiazol-3-yl)-8,11,14-trioxo-4-oxa-7,10-diaza-1(3,1)-piperidina-5(1,3)-benzenacyclotetradecaphane-12-yl)acetamide] | < 0.1 µM | < 0.1 µM |
| Cc1ccc2cc1CNC(=O)[C@H](CCc1ccccc1)NC(=O)[C@@H](NC(=O)OCc1ccccc1)CCCCC(=O)N1CC(CCO2)C1 [Compound 353, benzyl ((9S,12S)-5^4-methyl-8,11,17-trioxo-9-phenethyl-4-oxa-7,10-diaza-1(3,1)-azetidina-5(1,3)-benzenacycloheptadecaphane-12-yl)carbamate] | < 0.1 µM | < 0.1 µM |

Other lines, results leading:

| IC50 [1] | IC50 [2] | SMILES |
| --- | --- | --- |
| < 0.1 µM | 0.1 to 0.5 µM | CC(=O)N[C@H]1CC(=O)N2CCCC(CCOc3ccc(C)c(c3)CNC(=O)C(c3cnn(CCOCCOCCOCCN)c3)NC1=O)C2 (stereo partly drawn) [Compound 566, N-((12S)-9-(1-(2-(2-(2-(2-aminoethoxy)ethoxy)ethoxy)ethyl)-1H-pyrazol-4-yl)-5^4-methyl-8,11,14-trioxo-4-oxa-7,10-diaza-1(3,1)-piperidina-5(1,3)-benzenacyclotetradecaphane-12-yl)acetamide] |
| 0.1 to 0.5 µM | < 0.1 µM | Cc1ccc2cc1CNC(=O)[C@H](CCc1ccccc1)NC(=O)[C@@H](NC(=O)OCc1ccccc1)CC(=O)N1CC(C)CC(CCO2)C1 (stereo partly drawn) [Compound 337, benzyl ((9S,12S)-1^5,5^4-dimethyl-8,11,14-trioxo-9-phenethyl-4-oxa-7,10-diaza-1(3,1)-piperidina-5(1,3)-benzenacyclotetradecaphane-12-yl)carbamate] |
| < 0.1 µM | < 0.1 µM | Cc1ccc2cc1CNC(=O)C(CCc1cnc3cccnc3c1)NC(=O)[C@@H](NC(=O)OCc1ccccc1)CC(=O)N1CCCC(CCO2)C1 (stereo partly drawn) [Compound 511, benzyl ((12S)-9-(2-(1,5-naphthyridin-3-yl)ethyl)-5^4-methyl-8,11,14-trioxo-4-oxa-7,10-diaza-1(3,1)-piperidina-5(1,3)-benzenacyclotetradecaphane-12-yl)carbamate] |
| 0.1 to 0.5 µM | < 0.1 µM | COC(=O)N(CC1NC(=O)[C@@H](NC(C)=O)CC(=O)N2CCCC(CCOc3ccc(C)c(c3)CNC1=O)C2)c1ccccc1 (stereo partly drawn) [Compound 560, methyl (((12S)-12-acetamido-5^4-methyl-8,11,14-trioxo-4-oxa-7,10-diaza-1(3,1)-piperidina-5(1,3)-benzenacyclotetradecaphane-9-yl)methyl)(phenyl)carbamate] |
| < 0.1 µM | < 0.1 µM | Cc1ccc2cc1CNC(=O)C(CCc1ccncc1)NC(=O)[C@@H](NC(=O)C1(c3ccc(N)cc3)CC1)CC(=O)N1CCCC(CCO2)C1 (stereo partly drawn) [Compound 343, 1-(4-aminophenyl)-N-((12S)-5^4-methyl-8,11,14-trioxo-9-(2-(pyridin-4-yl)ethyl)-4-oxa-7,10-diaza-1(3,1)-piperidina-5(1,3)-benzenacyclotetradecaphane-12-yl)cyclopropane-1-carboxamide] |
| < 0.1 µM | < 0.1 µM | CC(=O)N[C@H]1CC(=O)N2CCCC(CCOc3ccc(C)c(c3)CNC(=O)C(CCc3ccncc3)NC1=O)C2 (stereo partly drawn) [Compound 551, N-((12S)-5^4-methyl-8,11,14-trioxo-9-(2-(pyridin-4-yl)ethyl)-4-oxa-7,10-diaza-1(3,1)-piperidina-5(1,3)-benzenacyclotetradecaphane-12-yl)acetamide] |
| < 0.1 µM | < 0.1 µM | Cc1ccc2cc1CNC(=O)[C@H](CCc1ccccc1)NC(=O)[C@@H](NC(=O)OCc1ccccc1)CC(=O)N1CCCC(CCO2)C1 (stereo partly drawn) [Compound 7, benzyl ((9S,12S)-5^4-methyl-8,11,14-trioxo-9-phenethyl-4-oxa-7,10-diaza-1(3,1)-piperidina-5(1,3)-benzenacyclotetradecaphane-12-yl)carbamate] |
| 0.1 to 0.5 µM | < 0.1 µM | CC(=O)N[C@H]1CC(=O)N2CCCC(CCOc3ccc(C)c(c3)CNC(=O)C(CCC3CCN(C(C)=O)CC3)NC1=O)C2 (stereo partly drawn) [Compound 338, N-((12S)-9-(2-(1-acetylpiperidin-4-yl)ethyl)-5^4-methyl-8,11,14-trioxo-4-oxa-7,10-diaza-1(3,1)-piperidina-5(1,3)-benzenacyclotetradecaphane-12-yl)acetamide] |
| < 0.1 µM | < 0.1 µM | Cc1ccc2cc1CNC(=O)[C@@H](CCc1ccccc1)NC(=O)[C@H](NC(=O)C(C)(C)CS)CC(=O)N1CCCC(CCO2)C1 (stereo partly drawn) [Compound 348, 3-mercapto-2,2-dimethyl-N-((9S,12S)-5^4-methyl-8,11,14-trioxo-9-phenethyl-4-oxa-7,10-diaza-1(3,1)-piperidina-5(1,3)-benzenacyclotetradecaphane-12-yl)propanamide] |
